Among the data in publication PMC7261188 (Nucleic Acids Research, 2020) are Kd values, retold here.

In this test the target is SFTSV CBD (cap-binding domain of SFTSV L protein) (Severe fever with thrombocytopenia syndrome virus, UniProt I0DF35). The experiment in a line: biochemical.

pKd: −log10 of the molar value.

Sequence of SFTSV CBD (cap-binding domain of SFTSV L protein) (I0DF35 1695-1810 limits assumed): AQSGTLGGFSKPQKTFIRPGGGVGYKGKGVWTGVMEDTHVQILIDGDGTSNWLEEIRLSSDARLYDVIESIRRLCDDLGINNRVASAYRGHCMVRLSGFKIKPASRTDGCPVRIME

With `C[n+]1cn([C@@H]2O[C@H](COP(=O)(O)OP(=O)(O)OP(=O)(O)O)[C@@H](O)[C@H]2O)c2nc(N)[nH]c(=O)c21` [m^7GTP], the pKd is approximately 3.86.
